Assay results published in publication PMC6009944, “Synthesis, antitumour activities and molecular docking of thiocarboxylic acid ester-based NSAID scaffolds: COX-2 inhibition and mechanistic studies” (Journal of Enzyme Inhibition and Medicinal Chemistry, 2018).
Like-named read-outs stand apart in the source and are kept apart here.

Tests used:
[1] = test system: HepG2; assay: MTT antitumor assay, HepG2; details: Homo sapiens, HepG2, read-out: IC50 (μM) HepG2
Experimental: (§2) The evaluation of the antitumour activity was performed using tetrazolium salt MTT (3–(4,5-dimethyl-2-thiazolyl)-2,5-diphenyl-2H-tetrazolium bromide) assay as reported[47–50].

[2] = test system: MCF-7; assay: MTT antitumor assay, MCF-7
Experimental: as §2

[3] = test system: HCT-116; assay: MTT antitumor assay, HCT-116
Experimental: as §2

[4] = test system: Caco-2; assay: MTT antitumor assay, Caco-2; details: Homo sapiens, Caco-2, read-out: IC50 (μM) Caco-2
Experimental: as §2

[5] = biological target: T1, cSrc (Homo sapiens, UniProt P12931); assay: Kinase inhibition assay (Kinase-Glo Plus), cSrc; assay type: biochemical; details: read-out: % inhibition; 10 μM compound
T1 construct: purchased BPS Bioscience
T1 sequence (P12931 whole entry): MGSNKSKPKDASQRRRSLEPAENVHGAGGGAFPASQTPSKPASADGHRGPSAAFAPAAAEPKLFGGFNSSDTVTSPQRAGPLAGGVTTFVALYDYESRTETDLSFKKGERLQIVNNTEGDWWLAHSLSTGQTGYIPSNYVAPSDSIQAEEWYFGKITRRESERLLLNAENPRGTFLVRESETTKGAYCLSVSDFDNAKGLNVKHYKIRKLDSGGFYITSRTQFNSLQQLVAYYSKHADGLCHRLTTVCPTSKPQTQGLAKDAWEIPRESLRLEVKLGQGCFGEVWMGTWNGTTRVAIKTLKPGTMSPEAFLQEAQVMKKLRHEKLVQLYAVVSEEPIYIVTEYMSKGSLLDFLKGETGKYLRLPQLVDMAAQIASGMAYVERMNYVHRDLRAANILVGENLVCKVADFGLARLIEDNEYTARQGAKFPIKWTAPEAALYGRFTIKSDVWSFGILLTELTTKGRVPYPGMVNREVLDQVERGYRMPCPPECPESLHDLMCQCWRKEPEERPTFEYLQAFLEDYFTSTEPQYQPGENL
Experimental: (§1) Luminescence signal was measured using a BioTek Synergy 2 microplate reader.

[6] = biological target: T2, HER2 (Homo sapiens, UniProt P04626); assay: Kinase inhibition assay (Kinase-Glo Plus), HER2; assay type: biochemical; details: read-out: % inhibition of 10 μM HER2; 10 μM compound
T2 construct: purchased BPS Bioscience
T2 sequence (P04626 23-1255): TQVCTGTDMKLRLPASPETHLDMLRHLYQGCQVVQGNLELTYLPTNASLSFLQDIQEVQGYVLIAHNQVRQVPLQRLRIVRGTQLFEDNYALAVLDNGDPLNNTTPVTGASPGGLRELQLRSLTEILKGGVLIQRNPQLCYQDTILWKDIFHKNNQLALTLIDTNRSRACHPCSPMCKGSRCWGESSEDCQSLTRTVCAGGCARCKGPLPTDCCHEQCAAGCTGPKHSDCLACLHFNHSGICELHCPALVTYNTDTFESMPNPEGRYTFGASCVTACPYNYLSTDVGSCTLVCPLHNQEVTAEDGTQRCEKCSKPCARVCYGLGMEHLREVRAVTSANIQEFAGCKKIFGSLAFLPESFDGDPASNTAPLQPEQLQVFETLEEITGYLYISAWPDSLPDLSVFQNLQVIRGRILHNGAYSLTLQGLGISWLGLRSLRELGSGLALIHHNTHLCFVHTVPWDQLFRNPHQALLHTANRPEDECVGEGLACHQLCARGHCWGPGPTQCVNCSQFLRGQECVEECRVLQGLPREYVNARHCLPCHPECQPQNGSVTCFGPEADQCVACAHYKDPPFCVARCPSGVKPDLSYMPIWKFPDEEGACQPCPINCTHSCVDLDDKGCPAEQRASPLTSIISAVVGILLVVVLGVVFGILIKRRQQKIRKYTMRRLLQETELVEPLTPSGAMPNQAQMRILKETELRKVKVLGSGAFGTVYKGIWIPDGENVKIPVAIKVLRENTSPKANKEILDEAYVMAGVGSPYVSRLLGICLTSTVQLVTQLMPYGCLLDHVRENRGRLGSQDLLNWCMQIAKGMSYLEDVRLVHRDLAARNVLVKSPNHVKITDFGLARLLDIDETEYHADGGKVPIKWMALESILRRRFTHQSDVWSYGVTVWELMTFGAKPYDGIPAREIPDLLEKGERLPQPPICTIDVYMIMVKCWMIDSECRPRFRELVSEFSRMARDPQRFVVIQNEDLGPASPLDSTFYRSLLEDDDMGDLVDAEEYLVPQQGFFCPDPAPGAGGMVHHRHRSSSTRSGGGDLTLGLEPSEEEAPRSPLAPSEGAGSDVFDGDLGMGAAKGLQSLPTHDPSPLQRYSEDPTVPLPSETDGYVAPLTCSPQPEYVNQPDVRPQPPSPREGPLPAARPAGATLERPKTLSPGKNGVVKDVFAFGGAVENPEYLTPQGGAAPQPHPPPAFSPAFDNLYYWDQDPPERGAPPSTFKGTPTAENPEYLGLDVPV
Experimental: as §1

[7] = biological target: T3, COX-2 (Ovis aries, UniProt P79208); assay: In vitro COX-2 enzyme inhibition assay (colorimetric kit); details: for SI, selectivity index (COX-1 IC50/COX-2 IC50): COX-2 selectivity over COX-1
T3 sequence (P79208 17-603): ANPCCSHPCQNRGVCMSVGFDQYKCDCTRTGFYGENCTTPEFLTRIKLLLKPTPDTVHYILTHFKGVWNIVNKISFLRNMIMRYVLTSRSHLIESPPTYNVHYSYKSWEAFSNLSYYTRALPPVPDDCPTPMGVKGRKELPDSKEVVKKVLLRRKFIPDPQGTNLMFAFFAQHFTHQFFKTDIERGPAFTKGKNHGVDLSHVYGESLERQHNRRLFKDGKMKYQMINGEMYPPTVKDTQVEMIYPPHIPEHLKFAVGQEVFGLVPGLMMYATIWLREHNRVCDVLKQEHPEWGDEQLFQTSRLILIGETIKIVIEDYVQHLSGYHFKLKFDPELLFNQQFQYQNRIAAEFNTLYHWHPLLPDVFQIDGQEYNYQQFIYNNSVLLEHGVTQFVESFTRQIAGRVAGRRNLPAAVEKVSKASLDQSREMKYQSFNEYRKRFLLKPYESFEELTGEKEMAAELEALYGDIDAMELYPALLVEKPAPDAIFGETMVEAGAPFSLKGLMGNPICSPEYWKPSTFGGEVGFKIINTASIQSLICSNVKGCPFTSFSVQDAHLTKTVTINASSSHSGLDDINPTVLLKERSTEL
Experimental: (§3) IC50 (represented in μM) (The half-maximal inhibitor concentration) values were determined[56–59], and the SI values were calculated[51]^,[52]^,[55] as IC50 (COX-1)/IC50 (COX-2).

[8] = biological target: T4, EGFR (Homo sapiens, UniProt P00533); assay: Kinase inhibition assay (Kinase-Glo Plus), EGFR; assay type: biochemical; details: read-out: % inhibition of 10 μM EGFR; 10 μM compound
T4 construct: purchased BPS Bioscience
T4 sequence (P00533 25-1210): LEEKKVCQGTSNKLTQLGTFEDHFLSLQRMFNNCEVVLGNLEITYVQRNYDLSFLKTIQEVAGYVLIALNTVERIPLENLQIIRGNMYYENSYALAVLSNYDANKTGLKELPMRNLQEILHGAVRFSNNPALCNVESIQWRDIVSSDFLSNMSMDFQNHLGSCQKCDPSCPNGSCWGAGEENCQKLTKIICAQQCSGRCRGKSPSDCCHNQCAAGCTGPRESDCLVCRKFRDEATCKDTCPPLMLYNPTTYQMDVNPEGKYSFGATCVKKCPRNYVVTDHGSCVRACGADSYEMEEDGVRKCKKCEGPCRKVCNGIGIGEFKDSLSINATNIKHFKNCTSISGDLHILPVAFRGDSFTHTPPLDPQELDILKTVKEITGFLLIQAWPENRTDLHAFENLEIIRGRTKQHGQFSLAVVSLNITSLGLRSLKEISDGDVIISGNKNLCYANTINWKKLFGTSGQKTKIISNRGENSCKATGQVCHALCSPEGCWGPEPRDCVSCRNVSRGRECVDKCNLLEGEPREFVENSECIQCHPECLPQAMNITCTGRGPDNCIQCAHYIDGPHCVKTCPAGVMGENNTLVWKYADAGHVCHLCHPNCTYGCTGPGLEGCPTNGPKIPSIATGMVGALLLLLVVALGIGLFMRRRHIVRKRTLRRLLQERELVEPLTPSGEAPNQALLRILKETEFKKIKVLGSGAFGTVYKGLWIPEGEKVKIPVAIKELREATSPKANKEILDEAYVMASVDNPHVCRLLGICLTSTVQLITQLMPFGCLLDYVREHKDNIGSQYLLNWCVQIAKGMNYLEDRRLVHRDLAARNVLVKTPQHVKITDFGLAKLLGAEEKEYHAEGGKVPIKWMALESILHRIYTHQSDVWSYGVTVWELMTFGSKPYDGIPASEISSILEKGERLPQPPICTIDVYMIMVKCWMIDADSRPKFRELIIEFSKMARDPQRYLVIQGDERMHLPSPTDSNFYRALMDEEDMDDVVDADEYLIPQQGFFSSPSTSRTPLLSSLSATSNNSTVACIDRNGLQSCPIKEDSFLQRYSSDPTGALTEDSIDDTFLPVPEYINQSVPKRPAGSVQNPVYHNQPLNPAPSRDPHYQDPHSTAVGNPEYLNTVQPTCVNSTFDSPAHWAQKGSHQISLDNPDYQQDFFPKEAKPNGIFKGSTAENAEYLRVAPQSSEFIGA
Experimental: as §1

[9] = biological target: T5, HER4 (Homo sapiens, UniProt Q15303); assay: Kinase inhibition assay (Kinase-Glo Plus), HER4; assay type: biochemical; details: read-out: % inhibition of 10 μM HER4; 10 μM compound
T5 construct: purchased BPS Bioscience
T5 sequence (Q15303 26-1308): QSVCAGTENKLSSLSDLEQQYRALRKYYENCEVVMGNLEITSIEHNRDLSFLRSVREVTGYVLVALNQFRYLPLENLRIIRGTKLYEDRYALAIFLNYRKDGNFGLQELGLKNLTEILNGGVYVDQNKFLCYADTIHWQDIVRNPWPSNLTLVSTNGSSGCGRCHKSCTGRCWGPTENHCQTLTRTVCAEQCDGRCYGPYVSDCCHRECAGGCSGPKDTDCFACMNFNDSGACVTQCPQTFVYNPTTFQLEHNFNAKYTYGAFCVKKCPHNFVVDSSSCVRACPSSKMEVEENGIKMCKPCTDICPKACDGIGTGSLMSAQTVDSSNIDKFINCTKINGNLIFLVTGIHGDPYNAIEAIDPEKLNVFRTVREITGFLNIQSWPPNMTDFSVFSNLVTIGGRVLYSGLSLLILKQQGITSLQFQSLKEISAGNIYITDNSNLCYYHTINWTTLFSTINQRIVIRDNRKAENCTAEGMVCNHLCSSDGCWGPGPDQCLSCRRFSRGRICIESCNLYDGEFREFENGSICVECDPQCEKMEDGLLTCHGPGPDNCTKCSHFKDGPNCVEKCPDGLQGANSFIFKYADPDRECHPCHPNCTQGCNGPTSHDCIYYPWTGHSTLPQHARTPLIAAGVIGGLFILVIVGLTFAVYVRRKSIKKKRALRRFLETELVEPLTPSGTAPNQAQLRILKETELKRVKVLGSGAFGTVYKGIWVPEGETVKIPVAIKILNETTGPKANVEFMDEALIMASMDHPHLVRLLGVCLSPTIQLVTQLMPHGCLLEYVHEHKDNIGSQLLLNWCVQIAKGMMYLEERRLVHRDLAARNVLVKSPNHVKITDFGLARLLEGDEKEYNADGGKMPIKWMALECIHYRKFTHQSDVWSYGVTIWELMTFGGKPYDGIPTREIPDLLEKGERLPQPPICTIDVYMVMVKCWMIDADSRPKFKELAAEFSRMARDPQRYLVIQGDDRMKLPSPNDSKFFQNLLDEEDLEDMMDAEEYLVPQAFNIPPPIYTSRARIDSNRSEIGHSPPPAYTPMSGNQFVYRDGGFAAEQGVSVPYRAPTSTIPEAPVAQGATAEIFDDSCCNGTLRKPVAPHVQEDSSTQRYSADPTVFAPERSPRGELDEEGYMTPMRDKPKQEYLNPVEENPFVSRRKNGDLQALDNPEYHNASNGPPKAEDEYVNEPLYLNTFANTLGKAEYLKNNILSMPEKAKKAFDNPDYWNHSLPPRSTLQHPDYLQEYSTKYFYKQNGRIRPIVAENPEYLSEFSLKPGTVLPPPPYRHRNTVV
Experimental: as §1

[10] = biological target: T6, COX-1 (Ovis aries, UniProt P05979); assay: In vitro COX-1 enzyme inhibition assay (colorimetric kit)
T6 sequence (P05979 25-600): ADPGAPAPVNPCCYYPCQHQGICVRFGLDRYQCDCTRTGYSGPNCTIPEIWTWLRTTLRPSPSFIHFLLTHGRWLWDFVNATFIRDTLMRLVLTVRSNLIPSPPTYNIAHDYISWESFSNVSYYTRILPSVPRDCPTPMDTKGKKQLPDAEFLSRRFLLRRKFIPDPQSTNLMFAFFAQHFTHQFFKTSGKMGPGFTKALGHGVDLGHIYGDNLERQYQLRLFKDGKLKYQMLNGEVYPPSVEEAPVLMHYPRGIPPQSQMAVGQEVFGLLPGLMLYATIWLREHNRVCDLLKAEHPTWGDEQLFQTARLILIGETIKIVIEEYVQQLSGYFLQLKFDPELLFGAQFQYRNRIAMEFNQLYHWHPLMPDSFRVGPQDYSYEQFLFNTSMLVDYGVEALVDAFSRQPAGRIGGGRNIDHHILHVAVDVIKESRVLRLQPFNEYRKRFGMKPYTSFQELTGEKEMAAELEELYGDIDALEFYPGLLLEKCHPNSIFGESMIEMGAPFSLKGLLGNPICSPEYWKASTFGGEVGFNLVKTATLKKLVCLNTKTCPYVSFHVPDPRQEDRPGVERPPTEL
Experimental: as §3

[11] = Homo sapiens, MCF7, read-out: IC50 (μM) MCF-7, human breast adenocarcinoma cell line, MTT, mean ± SD, n = 3
[12] = Homo sapiens, HCT-116, read-out: IC50 (μM) HCT-116, human colon cancer cell line, MTT, mean ± SD, n = 3

IC50 [1] [µM]	IC50 [2, 11] [µM]	IC50 [3, 12] [µM]	IC50 [4] [µM]	IC50 ([2]; read-out: IC50 (μM) MCF-7, human breast adenocarcinoma cell line, MTT, mean ± SD, n = 3) [µM]	IC50 ([3]; read-out: IC50 (μM) HCT-116, human colon cancer cell line, MTT, mean ± SD, n = 3) [µM]	melting point [°C]	inhibition at 10 µM [5] [%]	inhibition at 10 µM [6] [%]	IC50 [7] [µM]	SI, selectivity index (COX-1 IC50/COX-2 IC50) [7]	inhibition at 10 µM [8] [%]	inhibition at 10 µM [9] [%]	IC50 [10] [µM]	SMILES
10.5 ± 0.98	13.7 ± 1.19	23.8 ± 1.8	26.8 ± 2.17	–	–	90 to 92	3	0	0.69 ± 0.057	>72.5	0	3	> 50	CC(C(=O)SC1CCCCC1)c1ccc(-c2ccccc2)c(F)c1 (stereo not shown) [3b, S-cyclohexyl-2–(2-fluoro-[1,1′-biphenyl]-4-yl)propanethioate]
71.1 ± 4.11	73.7 ± 3.92	85.4 ± 4.57	80.2 ± 4.5	–	–	72 to 73	–	–	–	–	–	–	–	CC(=O)Oc1ccccc1C(=O)Sc1ccccc1 [4a, 2-[(Phenylthio)carbonyl]phenyl acetate]
63.6 ± 3.91	46.5 ± 2.84	76.5 ± 4.22	68.8 ± 3.79	–	–	55 to 56	–	–	–	–	–	–	–	CC(=O)Oc1ccccc1C(=O)SC1CCCCC1 [4b, 2-[(Cyclohexylthio)carbonyl]phenyl acetate]
7.91 ± 0.28	5.43 ± 0.2	5.32 ± 0.17	6.85 ± 0.34	–	–	–	–	–	–	–	–	–	–	O=c1[nH]cc(F)c(=O)[nH]1 [5-FU, 5-Fluorouracil, reference compound]
36.8 ± 2.7	42.6 ± 2.67	51.2 ± 3.71	63.8 ± 3.58	–	–	115 to 117	–	–	–	–	–	–	–	COc1ccc2cc(C(C)C(=O)Sc3ccccc3)ccc2c1 [5a, S-phenyl-(S)-2–(6-methoxynaphthalen-2-yl)propanethioate]

The remaining lines, values behind:

SMILES	IC50 [1] [µM]	IC50 [2, 11] [µM]	IC50 [3, 12] [µM]	IC50 [4] [µM]	IC50 ([2]; read-out: IC50 (μM) MCF-7, human breast adenocarcinoma cell line, MTT, mean ± SD, n = 3) [µM]	IC50 ([3]; read-out: IC50 (μM) HCT-116, human colon cancer cell line, MTT, mean ± SD, n = 3) [µM]	melting point [°C]	inhibition at 10 µM [5] [%]	inhibition at 10 µM [6] [%]	IC50 [7] [µM]	SI, selectivity index (COX-1 IC50/COX-2 IC50) [7]	inhibition at 10 µM [8] [%]	inhibition at 10 µM [9] [%]	IC50 [10] [µM]
CC(C)Cc1ccc(C(C)C(=O)Sc2ccccc2)cc1 (stereo not shown) [1a, S-phenyl-2–(4-isobutylphenyl)propanethioate]	85.1 ± 4.53	80.4 ± 4.58	89.6 ± 4.68	94.8 ± 4.92	–	–	–	–	–	–	–	–	–	–
CC(C)Cc1ccc(C(C)C(=O)SC2CCCCC2)cc1 (stereo not shown) [1b, S-cyclohexyl-2–(4-isobutylphenyl)propanethioate]	> 100	> 100	97.6 ± 5.12	> 100	–	–	–	–	–	–	–	–	–	–
CC(C(=O)Sc1ccccc1)c1cccc(C(=O)c2ccccc2)c1 (stereo not shown) [2a, S-phenyl-2–(3-benzoylphenyl)propanethioate]	59.8 ± 3.55	–	–	72.2 ± 4.06	48.1 ± 3.15	61.3 ± 3.97	96 to 98	–	–	–	–	–	–	–
CC(C(=O)SC1CCCCC1)c1cccc(C(=O)c2ccccc2)c1 (stereo not shown) [2b, S-cyclohexyl-2–(3-benzoylphenyl)propanethioate]	9.36 ± 0.79	11.9 ± 1.13	18.7 ± 1.5	21.7 ± 1.9	–	–	69 to 70	4	1	0.66 ± 0.052	>75.8	0	5	> 50
CC(C(=O)Sc1ccccc1)c1ccc(-c2ccccc2)c(F)c1 (stereo not shown) [3a, S-phenyl-2–(2-fluoro-[1,1′-biphenyl]-4-yl)propanethioate]	68.8 ± 3.87	63.6 ± 3.62	78.1 ± 4.08	76.5 ± 4.38	–	–	85 to 86	–	–	–	–	–	–	–
